What all share (experiment): kinase panel
What all share (format): biochemical

Assay [1] deals with DAPK1(h) (Homo sapiens, UniProt P53355). From the text:
(§1) We profiled three compounds from the series across the kinome (Table S1).
(§2) Ta b l e S1. The % inhibition of compounds 4, 5r [SU1261], and 6g [SU1349] against a
(§3) panel of kinase enzymes. We proϐiled three compounds from the series across 231
(§4) kinases. For SU1349, given its structural similarity with SU1261, we selected 98 from the
(§5) Tested kinase % inhibiƟon

In assay [2] the target is JNK1α1(h) (Homo sapiens, UniProt P45983).
Sequence of JNK1α1(h) (P45983 1-384 isoform P45983-2): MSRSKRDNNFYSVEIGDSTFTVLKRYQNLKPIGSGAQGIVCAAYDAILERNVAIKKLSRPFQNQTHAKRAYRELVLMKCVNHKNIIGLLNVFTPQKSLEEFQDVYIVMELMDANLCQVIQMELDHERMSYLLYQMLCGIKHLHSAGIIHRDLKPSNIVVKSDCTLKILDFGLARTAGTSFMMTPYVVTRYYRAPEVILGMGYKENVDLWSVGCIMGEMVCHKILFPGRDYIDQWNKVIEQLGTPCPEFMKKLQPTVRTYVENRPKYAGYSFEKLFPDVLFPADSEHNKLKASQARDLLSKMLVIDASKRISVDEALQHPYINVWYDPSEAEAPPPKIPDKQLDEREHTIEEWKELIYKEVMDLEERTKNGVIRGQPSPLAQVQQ
Source text: as §1, §2, §3, §4, §5

Assay [3] addresses T1, TBK1(h) (Homo sapiens, UniProt Q9UHD2).
T1 sequence (Q9UHD2 1-729): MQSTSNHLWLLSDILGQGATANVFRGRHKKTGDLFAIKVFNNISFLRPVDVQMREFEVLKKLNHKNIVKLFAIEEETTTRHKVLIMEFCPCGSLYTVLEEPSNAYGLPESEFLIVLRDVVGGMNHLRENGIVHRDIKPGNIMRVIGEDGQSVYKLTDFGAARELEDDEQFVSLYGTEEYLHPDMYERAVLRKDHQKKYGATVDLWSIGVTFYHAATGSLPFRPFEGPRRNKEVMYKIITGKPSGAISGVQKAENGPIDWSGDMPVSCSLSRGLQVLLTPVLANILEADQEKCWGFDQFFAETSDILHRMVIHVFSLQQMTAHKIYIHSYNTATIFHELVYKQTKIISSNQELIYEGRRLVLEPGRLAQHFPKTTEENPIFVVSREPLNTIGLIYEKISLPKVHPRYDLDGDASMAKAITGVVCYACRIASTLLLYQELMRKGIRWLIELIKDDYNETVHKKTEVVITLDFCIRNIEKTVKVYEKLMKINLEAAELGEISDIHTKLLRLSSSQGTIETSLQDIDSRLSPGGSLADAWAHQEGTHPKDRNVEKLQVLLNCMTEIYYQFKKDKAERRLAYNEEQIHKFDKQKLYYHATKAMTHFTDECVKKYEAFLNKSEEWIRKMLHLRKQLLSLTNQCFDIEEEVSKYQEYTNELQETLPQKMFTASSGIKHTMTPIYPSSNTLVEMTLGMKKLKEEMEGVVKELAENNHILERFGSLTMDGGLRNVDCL
Source text: as §1, §2, §3, §4, §5

The target in assay [4] is T2, JAK3(h) (Homo sapiens, UniProt P52333).
T2 sequence (P52333 1-1124): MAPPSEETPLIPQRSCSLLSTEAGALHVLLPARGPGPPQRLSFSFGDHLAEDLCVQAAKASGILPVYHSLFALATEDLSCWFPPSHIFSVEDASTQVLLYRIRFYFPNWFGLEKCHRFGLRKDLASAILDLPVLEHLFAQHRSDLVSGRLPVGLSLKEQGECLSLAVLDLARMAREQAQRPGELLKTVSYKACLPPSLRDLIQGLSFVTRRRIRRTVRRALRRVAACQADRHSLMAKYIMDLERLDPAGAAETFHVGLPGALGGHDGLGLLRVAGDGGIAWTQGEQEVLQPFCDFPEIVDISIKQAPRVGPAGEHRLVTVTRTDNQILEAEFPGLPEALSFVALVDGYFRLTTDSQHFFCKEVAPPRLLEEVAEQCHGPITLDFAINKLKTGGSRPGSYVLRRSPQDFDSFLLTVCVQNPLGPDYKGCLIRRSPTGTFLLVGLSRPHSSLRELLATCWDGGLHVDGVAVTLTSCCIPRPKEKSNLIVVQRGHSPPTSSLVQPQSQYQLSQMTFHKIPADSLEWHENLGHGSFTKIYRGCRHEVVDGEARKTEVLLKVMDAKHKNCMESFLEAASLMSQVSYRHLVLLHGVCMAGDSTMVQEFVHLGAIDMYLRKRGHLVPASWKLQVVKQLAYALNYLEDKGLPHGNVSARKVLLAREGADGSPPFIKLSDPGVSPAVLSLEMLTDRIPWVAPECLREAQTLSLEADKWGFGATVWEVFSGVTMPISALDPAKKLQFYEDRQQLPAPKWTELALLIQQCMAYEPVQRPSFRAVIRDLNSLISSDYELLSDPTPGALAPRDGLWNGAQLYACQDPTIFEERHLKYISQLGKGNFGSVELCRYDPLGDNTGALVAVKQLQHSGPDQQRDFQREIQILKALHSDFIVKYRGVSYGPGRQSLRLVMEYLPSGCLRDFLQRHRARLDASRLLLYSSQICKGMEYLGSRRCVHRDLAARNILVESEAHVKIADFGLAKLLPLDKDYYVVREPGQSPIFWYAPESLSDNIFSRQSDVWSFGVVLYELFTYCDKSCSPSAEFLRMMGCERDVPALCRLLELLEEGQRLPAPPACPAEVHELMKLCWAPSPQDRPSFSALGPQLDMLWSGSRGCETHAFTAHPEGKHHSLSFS
Source text: as §1, §2, §3, §4, §5

The target of assay [5] is CDK7/cyclinH/MAT1(h) (Homo sapiens, UniProt P50613).
Sequence of CDK7/cyclinH/MAT1(h) (P50613 whole entry): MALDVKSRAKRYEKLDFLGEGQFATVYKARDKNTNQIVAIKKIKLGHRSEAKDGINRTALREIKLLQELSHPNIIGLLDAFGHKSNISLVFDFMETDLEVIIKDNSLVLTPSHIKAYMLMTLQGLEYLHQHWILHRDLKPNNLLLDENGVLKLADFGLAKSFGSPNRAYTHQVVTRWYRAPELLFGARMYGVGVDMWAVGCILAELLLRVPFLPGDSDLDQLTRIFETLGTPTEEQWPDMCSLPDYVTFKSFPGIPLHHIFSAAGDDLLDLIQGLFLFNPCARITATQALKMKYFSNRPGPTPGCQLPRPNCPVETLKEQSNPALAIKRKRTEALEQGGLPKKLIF
Sequence of CDK7/cyclinH/MAT1(h) (P51946 whole entry partner): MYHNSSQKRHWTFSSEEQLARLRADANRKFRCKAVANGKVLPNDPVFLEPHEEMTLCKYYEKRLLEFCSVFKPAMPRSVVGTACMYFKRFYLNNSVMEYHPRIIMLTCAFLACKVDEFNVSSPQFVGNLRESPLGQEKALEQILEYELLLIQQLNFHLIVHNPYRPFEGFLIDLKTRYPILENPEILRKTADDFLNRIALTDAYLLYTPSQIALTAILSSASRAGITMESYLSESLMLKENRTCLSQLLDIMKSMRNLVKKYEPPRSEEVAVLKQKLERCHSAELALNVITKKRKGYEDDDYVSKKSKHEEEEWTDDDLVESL
Sequence of CDK7/cyclinH/MAT1(h) (P51948 whole entry partner): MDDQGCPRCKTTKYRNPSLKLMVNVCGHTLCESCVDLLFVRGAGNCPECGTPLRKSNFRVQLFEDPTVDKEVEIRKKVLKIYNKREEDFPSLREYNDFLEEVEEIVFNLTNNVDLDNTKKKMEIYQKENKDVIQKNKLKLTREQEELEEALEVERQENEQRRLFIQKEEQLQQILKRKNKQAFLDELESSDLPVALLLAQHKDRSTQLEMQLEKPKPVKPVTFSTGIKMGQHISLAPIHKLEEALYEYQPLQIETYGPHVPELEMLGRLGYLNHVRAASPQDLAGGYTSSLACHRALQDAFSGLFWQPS
Source text: as §1, §2, §3, §4, §5

In assay [6] the target is T3, SAPK3(h) (Homo sapiens, UniProt P53778).
T3 sequence (P53778 1-367): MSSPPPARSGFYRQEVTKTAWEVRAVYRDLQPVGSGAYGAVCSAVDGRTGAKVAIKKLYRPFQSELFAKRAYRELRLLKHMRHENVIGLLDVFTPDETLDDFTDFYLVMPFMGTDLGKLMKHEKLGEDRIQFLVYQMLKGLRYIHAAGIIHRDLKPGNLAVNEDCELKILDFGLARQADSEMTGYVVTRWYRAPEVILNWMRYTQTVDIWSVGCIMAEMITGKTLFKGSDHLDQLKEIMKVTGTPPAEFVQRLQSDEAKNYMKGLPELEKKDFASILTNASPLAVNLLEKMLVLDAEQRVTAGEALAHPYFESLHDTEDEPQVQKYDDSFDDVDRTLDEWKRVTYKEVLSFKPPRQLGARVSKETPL
Source text: as §1, §2, §3, §4, §5

Assay [7] addresses T4, Aurora-C(h) (Homo sapiens, UniProt Q9UQB9).
T4 sequence (Q9UQB9 1-309): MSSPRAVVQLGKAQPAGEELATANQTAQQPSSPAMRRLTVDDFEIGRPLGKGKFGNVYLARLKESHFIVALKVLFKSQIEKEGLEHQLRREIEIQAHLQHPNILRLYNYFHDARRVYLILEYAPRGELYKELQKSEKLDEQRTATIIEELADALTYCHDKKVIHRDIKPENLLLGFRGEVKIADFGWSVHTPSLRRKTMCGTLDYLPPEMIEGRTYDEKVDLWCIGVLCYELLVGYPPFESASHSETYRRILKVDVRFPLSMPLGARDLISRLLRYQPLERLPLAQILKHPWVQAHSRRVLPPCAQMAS
Source text: as §1, §2, §3, §4, §5

Assay [8] deals with Ret(h) (Homo sapiens, UniProt P07949).
Sequence of Ret(h) (P07949 29-1114): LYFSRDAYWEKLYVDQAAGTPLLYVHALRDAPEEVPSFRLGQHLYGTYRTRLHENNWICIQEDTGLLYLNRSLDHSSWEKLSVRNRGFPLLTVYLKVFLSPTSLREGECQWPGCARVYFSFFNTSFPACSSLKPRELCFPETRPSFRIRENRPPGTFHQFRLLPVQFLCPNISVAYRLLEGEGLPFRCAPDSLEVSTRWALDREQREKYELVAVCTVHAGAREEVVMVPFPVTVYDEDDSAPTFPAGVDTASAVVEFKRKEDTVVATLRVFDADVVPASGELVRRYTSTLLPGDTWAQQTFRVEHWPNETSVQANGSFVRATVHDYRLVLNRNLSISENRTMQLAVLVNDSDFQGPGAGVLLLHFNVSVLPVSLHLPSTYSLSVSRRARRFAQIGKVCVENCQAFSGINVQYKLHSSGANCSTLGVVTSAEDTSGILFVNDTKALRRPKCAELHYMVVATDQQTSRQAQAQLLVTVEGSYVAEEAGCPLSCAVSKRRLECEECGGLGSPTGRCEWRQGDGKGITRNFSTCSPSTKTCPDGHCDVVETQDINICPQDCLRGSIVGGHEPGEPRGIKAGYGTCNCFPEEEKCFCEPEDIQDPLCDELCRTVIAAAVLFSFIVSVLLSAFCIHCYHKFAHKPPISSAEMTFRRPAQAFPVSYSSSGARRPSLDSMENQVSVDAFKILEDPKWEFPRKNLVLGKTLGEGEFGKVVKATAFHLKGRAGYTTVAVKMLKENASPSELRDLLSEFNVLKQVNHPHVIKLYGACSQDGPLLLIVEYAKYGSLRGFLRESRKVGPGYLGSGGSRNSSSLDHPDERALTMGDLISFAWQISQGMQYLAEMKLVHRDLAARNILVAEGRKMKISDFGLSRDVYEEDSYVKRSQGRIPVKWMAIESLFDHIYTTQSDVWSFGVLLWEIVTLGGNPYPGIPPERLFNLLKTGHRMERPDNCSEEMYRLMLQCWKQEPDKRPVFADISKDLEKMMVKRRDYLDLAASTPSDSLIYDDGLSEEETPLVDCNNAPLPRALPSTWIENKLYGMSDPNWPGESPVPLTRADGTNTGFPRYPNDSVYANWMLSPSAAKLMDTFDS
Source text: as §1, §2, §3, §4, §5

Sequence of DAPK1(h) (P53355 whole entry): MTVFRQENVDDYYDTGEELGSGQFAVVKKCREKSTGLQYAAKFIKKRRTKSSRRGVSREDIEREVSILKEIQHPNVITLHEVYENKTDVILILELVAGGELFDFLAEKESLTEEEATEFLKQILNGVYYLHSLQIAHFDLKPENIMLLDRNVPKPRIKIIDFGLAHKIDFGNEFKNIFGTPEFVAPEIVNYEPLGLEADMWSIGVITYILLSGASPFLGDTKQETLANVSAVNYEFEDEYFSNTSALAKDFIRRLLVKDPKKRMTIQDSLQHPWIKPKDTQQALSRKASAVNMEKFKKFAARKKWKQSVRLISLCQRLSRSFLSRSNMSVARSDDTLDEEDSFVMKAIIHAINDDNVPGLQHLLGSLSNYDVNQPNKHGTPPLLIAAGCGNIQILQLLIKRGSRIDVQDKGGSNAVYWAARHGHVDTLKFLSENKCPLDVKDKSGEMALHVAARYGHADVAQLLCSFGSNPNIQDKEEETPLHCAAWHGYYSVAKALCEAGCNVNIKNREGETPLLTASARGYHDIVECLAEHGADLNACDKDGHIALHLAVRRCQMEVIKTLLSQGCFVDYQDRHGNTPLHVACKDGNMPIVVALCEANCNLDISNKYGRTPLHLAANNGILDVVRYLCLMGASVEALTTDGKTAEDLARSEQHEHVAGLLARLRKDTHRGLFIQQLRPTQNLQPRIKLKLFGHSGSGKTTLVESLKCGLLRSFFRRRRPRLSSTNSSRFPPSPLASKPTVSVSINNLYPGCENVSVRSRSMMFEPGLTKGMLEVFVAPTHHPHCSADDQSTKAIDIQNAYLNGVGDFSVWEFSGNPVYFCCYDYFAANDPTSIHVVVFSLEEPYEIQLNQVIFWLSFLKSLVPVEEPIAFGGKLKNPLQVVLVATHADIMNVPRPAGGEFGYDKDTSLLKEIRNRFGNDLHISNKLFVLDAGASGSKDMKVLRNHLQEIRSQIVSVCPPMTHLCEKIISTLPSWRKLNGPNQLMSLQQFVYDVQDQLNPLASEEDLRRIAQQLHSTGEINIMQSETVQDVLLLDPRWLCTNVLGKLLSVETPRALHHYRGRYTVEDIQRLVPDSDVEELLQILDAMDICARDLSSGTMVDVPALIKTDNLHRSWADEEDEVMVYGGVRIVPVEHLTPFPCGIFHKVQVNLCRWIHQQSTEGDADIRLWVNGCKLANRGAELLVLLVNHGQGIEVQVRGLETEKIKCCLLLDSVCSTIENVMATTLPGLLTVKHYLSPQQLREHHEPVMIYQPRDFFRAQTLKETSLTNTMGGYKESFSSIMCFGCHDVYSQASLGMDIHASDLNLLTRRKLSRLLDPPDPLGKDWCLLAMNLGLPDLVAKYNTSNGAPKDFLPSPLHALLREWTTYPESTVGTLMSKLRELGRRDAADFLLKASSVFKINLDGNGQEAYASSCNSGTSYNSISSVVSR

What is called inhibition is the change of the read-out against control, counted positive when it falls. For the molecule `Nc1n[nH]c2ccc(-c3ccnc4[nH]c(-c5ccccc5)cc34)cc12` [Compound 4], the inhibition at 1 µM in assay [1] was -1%; in assay [2], 80%; in assay [3] it was 81%; in assay [4] it was 76%; in assay [5] it was 85%; in assay [6], 99%. For the same molecule, the inhibition at 1 µM in assay [7] came out at 90%; in assay [8] it was 52%.
Turning to `Nc1n[nH]c2ccc(-c3ccnc4[nH]c(-c5cccc(OCc6ccccc6)c5)cc34)cc12` [Compound 5r [SU1261]], the inhibition at 1 µM in assay [1] is -15%; in assay [2] it was 12%; in assay [3] it was 22%; in assay [4], 30%; in assay [5] it was 37%; in assay [6], 49%. Further, the values for the inhibition at 1 µM in assay [7] and in assay [8] were 32% and 41%, respectively.
Turning to `Nc1n[nH]c2ccc(-c3ccnc4[nH]c(-c5ccnc(OCc6ccccc6)c5)cc34)cc12` [Compound 6g [SU1349]], the inhibition at 1 µM in assay [1] came to 4%; in assay [2], 25%; in assay [3] it was 2%; in assay [4] it was 18%; in assay [5] it was 14%; in assay [6], 44%. Also, the inhibition at 1 µM in assay [7] is 19%; in assay [8] it was -3%.

Values taken from article PMC11314561, “Design and Synthesis of Novel Aminoindazole-pyrrolo[2,3-b]pyridine Inhibitors of IKKα That Selectively Perturb Cellular Non-Canonical NF-κB Signalling” (Molecules, 2024).
